Data taken from patent US10329299B2, “Heterocyclic compounds and uses thereof” (Infinity Pharmaceuticals, Inc., priority 2013, dated 2019).

Columns and labels:
[1] = molecular target: α isoform of human Class I PI3 kinases (Homo sapiens (Human), UniProt P42336); test: PI3-Kinase Promega ADP-Glo Max assay, α isoform; format: biochemical; conditions: read-out: PI3K α IC50
Method: (§1) Promega ADP-Glo Max assay kit (Cat. No. V7002) was utilized to determine IC50 values for α, β, δ and γ isoforms of human Class I PI3 kinases (Millipore). […] Reactions were incubated at room temperature for 2 hours followed by addition of 25 uL of stop solution. After a 40-minute incubation at room temperature, 50 uL of Promega detection mix was added followed by incubation for 1 hour at room temperature. Plates were then read on Envision plate reader in lunimescence mode. Data was converted to % inhibition using the following equation below:
(§2) [formula] where S is the sample luminescence, Pos is a positive control without added PI3K, Neg is the negative control without added compound. Data was then plotted as % inhibition vs compound concentration.

[2] = molecular target: β isoform of human Class I PI3 kinases (Homo sapiens (Human), UniProt P42338); test: PI3-Kinase Promega ADP-Glo Max assay, β isoform; format: biochemical; conditions: read-out: PI3K β IC50
Chain of β isoform of human Class I PI3 kinases (P42338 whole entry, canonical isoform): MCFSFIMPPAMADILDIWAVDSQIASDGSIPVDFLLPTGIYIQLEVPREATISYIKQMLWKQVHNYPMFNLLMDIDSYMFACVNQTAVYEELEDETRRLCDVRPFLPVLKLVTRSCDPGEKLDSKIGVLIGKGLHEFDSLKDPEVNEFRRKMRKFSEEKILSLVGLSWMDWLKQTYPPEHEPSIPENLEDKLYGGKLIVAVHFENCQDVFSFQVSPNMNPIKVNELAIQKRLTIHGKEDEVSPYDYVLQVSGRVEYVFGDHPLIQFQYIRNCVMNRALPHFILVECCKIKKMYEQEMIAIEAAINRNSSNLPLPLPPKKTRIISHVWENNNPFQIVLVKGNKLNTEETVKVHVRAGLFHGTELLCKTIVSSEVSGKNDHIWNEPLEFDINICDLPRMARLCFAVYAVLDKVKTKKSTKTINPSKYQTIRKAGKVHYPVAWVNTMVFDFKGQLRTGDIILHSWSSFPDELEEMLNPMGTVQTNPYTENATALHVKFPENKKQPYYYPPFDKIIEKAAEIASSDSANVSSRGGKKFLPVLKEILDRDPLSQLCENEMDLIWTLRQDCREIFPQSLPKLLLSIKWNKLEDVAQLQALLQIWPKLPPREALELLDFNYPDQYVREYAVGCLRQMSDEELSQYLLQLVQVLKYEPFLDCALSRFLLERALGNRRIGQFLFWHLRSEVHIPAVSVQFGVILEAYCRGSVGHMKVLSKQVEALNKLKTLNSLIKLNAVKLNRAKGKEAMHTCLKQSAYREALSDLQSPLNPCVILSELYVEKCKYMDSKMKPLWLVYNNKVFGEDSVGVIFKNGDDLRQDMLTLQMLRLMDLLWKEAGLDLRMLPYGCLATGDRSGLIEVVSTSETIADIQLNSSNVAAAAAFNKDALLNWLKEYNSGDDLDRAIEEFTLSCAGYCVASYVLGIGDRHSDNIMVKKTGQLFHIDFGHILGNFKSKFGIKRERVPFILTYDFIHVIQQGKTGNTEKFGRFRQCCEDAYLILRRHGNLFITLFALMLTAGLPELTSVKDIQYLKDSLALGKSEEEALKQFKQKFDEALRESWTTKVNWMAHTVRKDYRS
Chain of β isoform of human Class I PI3 kinases (P27986 whole entry partner, canonical isoform): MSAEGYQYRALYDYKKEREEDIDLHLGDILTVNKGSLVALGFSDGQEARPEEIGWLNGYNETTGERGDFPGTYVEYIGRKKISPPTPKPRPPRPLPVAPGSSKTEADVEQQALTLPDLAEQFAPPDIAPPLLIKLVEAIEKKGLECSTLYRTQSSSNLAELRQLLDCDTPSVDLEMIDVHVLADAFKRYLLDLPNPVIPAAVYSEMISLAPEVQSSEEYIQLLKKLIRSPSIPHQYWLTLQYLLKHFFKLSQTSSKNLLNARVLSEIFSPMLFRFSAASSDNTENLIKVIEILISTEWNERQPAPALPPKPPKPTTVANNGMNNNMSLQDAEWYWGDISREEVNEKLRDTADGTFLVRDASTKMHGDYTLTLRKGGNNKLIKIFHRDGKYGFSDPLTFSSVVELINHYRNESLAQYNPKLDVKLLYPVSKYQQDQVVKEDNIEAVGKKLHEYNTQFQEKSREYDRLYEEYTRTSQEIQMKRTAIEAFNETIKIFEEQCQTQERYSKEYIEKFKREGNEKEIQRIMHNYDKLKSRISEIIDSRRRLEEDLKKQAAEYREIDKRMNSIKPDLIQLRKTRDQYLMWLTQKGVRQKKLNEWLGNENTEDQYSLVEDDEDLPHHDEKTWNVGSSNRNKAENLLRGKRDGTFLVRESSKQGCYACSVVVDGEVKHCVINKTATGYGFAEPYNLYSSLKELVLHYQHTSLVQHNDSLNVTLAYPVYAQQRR
Method: as §1, §2

[3] = molecular target: δ isoform of human Class I PI3 kinases (Homo sapiens (Human), UniProt O00329); test: PI3-Kinase Promega ADP-Glo Max assay, δ isoform; format: biochemical; conditions: read-out: PI3K δ IC50
Chain of δ isoform of human Class I PI3 kinases (O00329 whole entry, canonical isoform): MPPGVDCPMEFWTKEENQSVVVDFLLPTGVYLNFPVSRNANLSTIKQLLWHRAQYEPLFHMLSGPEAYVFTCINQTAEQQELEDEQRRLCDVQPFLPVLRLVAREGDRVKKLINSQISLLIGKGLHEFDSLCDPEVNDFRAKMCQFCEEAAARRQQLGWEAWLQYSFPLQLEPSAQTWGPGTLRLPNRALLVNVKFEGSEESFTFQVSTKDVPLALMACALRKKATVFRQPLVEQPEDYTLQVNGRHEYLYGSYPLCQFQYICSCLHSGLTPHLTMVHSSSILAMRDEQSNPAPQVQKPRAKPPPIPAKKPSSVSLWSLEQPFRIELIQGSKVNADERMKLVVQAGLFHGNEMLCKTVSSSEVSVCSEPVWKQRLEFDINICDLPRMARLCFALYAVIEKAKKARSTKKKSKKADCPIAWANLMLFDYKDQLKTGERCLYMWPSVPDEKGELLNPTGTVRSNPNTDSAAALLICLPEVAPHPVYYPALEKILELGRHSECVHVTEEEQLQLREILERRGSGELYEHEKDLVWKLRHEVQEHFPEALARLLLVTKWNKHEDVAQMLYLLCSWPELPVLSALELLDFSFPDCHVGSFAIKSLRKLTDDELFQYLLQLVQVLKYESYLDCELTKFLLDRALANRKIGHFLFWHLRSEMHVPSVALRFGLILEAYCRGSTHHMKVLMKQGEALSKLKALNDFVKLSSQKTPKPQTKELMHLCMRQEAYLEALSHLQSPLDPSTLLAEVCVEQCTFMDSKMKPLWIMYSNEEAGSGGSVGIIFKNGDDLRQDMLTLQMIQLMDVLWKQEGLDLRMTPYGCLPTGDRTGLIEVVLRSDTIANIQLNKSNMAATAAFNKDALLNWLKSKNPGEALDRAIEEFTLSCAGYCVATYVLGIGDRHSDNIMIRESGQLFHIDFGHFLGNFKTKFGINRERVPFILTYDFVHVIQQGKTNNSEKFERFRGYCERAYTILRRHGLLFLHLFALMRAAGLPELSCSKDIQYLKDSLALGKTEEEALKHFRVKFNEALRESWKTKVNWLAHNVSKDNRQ
Chain of δ isoform of human Class I PI3 kinases (P27986 whole entry partner, canonical isoform): as the sequence (P27986 whole entry partner, canonical isoform) above
Method: as §1, §2

[4] = molecular target: γ isoform of human Class I PI3 kinases (Homo sapiens (Human), UniProt P48736); test: PI3-Kinase Promega ADP-Glo Max assay, γ isoform; format: biochemical; conditions: for PI3K δ/PI3K γ IC50 (selectivity): ratio of PI3K δ IC50 to PI3K γ IC50
Chain of γ isoform of human Class I PI3 kinases (P48736 whole entry, canonical isoform): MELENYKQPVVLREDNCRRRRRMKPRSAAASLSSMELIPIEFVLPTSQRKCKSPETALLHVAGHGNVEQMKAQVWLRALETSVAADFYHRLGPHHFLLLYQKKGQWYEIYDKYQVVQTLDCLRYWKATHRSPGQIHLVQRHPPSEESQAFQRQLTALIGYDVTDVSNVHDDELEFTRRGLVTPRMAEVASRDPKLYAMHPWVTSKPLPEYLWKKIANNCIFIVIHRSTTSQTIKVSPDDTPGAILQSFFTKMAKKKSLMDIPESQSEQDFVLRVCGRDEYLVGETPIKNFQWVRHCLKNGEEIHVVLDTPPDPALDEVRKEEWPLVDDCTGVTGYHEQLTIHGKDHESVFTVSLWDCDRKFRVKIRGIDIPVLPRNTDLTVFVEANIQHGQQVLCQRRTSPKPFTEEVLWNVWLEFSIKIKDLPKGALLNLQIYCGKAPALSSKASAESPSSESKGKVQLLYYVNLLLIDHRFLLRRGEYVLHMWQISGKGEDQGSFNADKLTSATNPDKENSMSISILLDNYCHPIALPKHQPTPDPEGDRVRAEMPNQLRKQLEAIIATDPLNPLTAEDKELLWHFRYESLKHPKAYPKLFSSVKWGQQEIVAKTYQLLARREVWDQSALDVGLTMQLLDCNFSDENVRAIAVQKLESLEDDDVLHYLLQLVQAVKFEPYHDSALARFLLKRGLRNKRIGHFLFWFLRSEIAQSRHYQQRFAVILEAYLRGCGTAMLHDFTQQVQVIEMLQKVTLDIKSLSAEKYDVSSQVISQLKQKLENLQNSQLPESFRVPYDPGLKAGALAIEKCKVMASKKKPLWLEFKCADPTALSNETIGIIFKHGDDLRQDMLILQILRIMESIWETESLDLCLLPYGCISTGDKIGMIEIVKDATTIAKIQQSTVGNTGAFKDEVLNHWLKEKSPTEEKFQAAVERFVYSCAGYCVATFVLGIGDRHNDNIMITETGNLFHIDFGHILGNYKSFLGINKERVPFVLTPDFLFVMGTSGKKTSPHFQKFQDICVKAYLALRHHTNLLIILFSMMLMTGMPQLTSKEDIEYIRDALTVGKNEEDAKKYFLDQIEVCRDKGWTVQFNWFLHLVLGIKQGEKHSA
Method: as §1, §2

PI3K-γ = PI3K-γ (Mus musculus (Mouse), UniProt Q9JHG7); test: PI3K-γ selective cellular assay: phospho-AKT in C5a stimulated RAW264.7 macrophages; format: cell-based; conditions: ratio of RAJI p110 δ assay IC50 to Raw264.7 p110 γ assay IC50
Chain of PI3K-γ (Q9JHG7 whole entry): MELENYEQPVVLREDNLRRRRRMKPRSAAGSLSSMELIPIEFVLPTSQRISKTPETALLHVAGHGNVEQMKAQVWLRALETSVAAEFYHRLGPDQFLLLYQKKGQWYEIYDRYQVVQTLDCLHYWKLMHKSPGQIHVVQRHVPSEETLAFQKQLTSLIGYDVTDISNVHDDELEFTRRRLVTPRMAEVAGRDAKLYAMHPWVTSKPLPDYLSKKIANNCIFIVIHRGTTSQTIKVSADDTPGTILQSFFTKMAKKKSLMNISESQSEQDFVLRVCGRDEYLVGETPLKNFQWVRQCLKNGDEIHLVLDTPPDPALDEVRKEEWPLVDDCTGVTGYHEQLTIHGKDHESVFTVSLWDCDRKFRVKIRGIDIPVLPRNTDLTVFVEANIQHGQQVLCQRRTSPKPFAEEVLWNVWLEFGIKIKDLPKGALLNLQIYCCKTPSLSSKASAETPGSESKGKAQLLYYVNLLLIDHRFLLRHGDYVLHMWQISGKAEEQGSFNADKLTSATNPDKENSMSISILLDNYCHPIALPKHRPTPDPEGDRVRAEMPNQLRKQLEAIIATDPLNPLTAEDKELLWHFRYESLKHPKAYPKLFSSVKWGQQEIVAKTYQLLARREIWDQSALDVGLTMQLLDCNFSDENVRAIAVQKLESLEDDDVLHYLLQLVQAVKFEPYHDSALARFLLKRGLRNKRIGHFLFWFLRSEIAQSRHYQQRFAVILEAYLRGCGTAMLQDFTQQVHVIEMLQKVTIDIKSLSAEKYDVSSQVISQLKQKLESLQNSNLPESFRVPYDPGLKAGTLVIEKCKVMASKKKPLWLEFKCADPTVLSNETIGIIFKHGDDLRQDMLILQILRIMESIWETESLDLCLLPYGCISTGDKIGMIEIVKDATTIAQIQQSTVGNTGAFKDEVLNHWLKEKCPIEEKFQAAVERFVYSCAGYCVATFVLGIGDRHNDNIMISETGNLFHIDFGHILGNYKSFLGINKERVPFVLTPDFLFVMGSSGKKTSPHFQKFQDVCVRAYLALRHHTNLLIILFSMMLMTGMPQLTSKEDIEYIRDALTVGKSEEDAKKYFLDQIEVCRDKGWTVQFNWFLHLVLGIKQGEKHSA
Excerpt: Cells can be treated with test compounds prior to, simultaneously with, or subsequent to the stimulation by C5a.

PI3K/Akt/mTOR signaling = test: Kinase signaling in blood (phosflow); format: cell-based; conditions: unfractionated splenocytes or peripheral blood mononuclear cells stimulated with anti-CD3
Method: PI3K/Akt/mTOR signaling is measured in blood cells using the phosflow method (Methods Enzymol. (2007) 434:131-54). This method is by nature a single cell assay so that cellular heterogeneity can be detected rather than population averages. This allows concurrent distinction of signaling states in different populations defined by other markers. Phosflow is also highly quantitative. To test the effects of one or more compounds provided herein, unfractionated splenocytes, or peripheral blood mononuclear cells are stimulated with anti-CD3 to initiate T-cell receptor signaling. The cells are then fixed and stained for surface markers and intracellular phosphoproteins. […]
Similarly, aliquots of whole blood are incubated for 15 minutes with vehicle (e.g., 0.1% DMSO) or kinase inhibitors at various concentrations, before addition of stimuli to crosslink the T cell receptor (TCR) (anti-CD3 with secondary antibody) or the B cell receptor (BCR) using anti-kappa light chain antibody (Fab′2 fragments). […] The level of phosphorylation of kinase substrates such as Akt and S6 are then measured by incubating the fixed cells with labeled antibodies specific to the phosphorylated isoforms of these proteins. The population of cells are then analyzed by flow cytometry.

Structure (SMILES): C[C@H](NC(=O)c1c(N)nn2cccnc12)c1cc2cccc(C#Cc3ccn[nH]3)c2c(=O)n1-c1ccccc1 [Compound 43]
- IC50 [1]: 5 to 10 µM
- IC50 [2]: 5 to 10 µM
- IC50 [3]: 5 to 10 µM
- PI3K δ/PI3K γ IC50 (selectivity) [4]: Y (Y = 50 to <850)
- IC50 ([4]; read-out: PI3K γ IC50): 0.1 to 0.5 µM
- RAJI δ/Raw264.7 γ IC50 (selectivity) (PI3K-γ): X (X = 10 to <50)

Structure (SMILES): C[C@H](NC(=O)c1c(N)nn2cccnc12)c1cc2cccc(C#CC3CNC3)c2c(=O)n1-c1ccccc1 [Compound 74]
- PI3K δ/PI3K γ IC50 (selectivity) [4]: W (W = >1 to <10)
- RAJI δ/Raw264.7 γ IC50 (selectivity) (PI3K-γ): W (W = >1 to <10)

Structure (SMILES): C[C@H](NC(=O)c1c(N)nn2cccnc12)c1cc2cccc(NC(=O)c3cnn(C)c3)c2c(=O)n1-c1ccccc1 [Compound 90]
- PI3K δ/PI3K γ IC50 (selectivity) [4]: W (W = >1 to <10)
- RAJI δ/Raw264.7 γ IC50 (selectivity) (PI3K-γ): X (X = 10 to <50)

Structure (SMILES): C[C@H](NC(=O)c1c(N)nn2cccnc12)c1cc2cccc(C#CC3CCN(S(C)(=O)=O)CC3)c2c(=O)n1-c1ccccc1 [Compound 83]
- PI3K δ/PI3K γ IC50 (selectivity) [4]: X (X = 10 to <50)
- RAJI δ/Raw264.7 γ IC50 (selectivity) (PI3K-γ): X (X = 10 to <50)

Structure (SMILES): CO[C@H]1C[C@@H]2CC[C@@H](C)[C@@](O)(O2)C(=O)C(=O)N2CCCC[C@H]2C(=O)O[C@H]([C@H](C)C[C@@H]2CC[C@@H](O)[C@H](OC)C2)CC(=O)[C@H](C)/C=C(\C)[C@@H](O)[C@@H](OC)C(=O)[C@H](C)C[C@H](C)/C=C/C=C/C=C/1C [rapamycin]
- anti-CD3 mediated phosphorylation of Akt-S473 (PI3K/Akt/mTOR signaling): enhances
- anti-CD3 mediated phosphorylation of S6 (PI3K/Akt/mTOR signaling): inhibits

Structure (SMILES): C[C@H](NC(=O)c1c(N)nn2cccnc12)c1cc2cccc(C#CC=O)c2c(=O)n1-c1ccccc1 [Compound 36]
- PI3K δ/PI3K γ IC50 (selectivity) [4]: X (X = 10 to <50)
- RAJI δ/Raw264.7 γ IC50 (selectivity) (PI3K-γ): W (W = >1 to <10)

Structure (SMILES): CC(=O)N1CCC(C#Cc2cccc3cc([C@H](C)NC(=O)c4c(N)nn5cccnc45)n(-c4ccccc4)c(=O)c23)CC1 [Compound 82]
- PI3K δ/PI3K γ IC50 (selectivity) [4]: X (X = 10 to <50)
- RAJI δ/Raw264.7 γ IC50 (selectivity) (PI3K-γ): X (X = 10 to <50)

Structure (SMILES): C/C=C/c1cccc2cc([C@H](C)NC(=O)c3c(N)nn4cccnc34)n(-c3ccccc3)c(=O)c12 [Compound 70]
- PI3K δ/PI3K γ IC50 (selectivity) [4]: X (X = 10 to <50)

Structure (SMILES): C[C@H](NC(=O)c1c(N)nn2cccnc12)c1cc2cccc(C#Cc3cn[nH]c3)c2c(=O)n1-c1ccccc1 [Compound 80]
- PI3K δ/PI3K γ IC50 (selectivity) [4]: Y (Y = 50 to <850)
- RAJI δ/Raw264.7 γ IC50 (selectivity) (PI3K-γ): Y (Y = 50 to <850)

Structure (SMILES): Cc1c(C#Cc2cccc3nc([C@H](C)NC(=O)c4c(N)nn5cccnc45)n(-c4ccccc4)c(=O)c23)cnn1C [Compound 88, (S)-2-amino-N-(1-(5-((1,5-dimethyl-1H-pyrazol-4-yl)ethynyl)-4-oxo-3-phenyl-3,4-dihydroquinazolin-2-yl)ethyl)pyrazolo[1,5-a]pyrimidine-3-carboxamide]
- PI3K δ/PI3K γ IC50 (selectivity) [4]: X (X = 10 to <50)
- RAJI δ/Raw264.7 γ IC50 (selectivity) (PI3K-γ): Y (Y = 50 to <850)
